According to ChEMBL document CHEMBL1201862, “PubChem BioAssay data set” (2004):
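Cultured in 96-well plates, cells were exposed to test compound for 48 hours across five concentrations. At the GI50, growth is halved.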 The source made the active and inactive calls. Rule as the data show it: active = GI50 up to about 1.1 µM and inactive = higher.

Legend:
Assay in all cases: NCI tumour cell line growth inhibition, 48 h
786-0 = test system: 786-0
A549 = test system: A549
ACHN = test system: ACHN
CAKI-1 = test system: CAKI-1
CCRF-CEM = test system: CCRF-CEM
COLO 205 = test system: COLO 205
DLD-1 = test system: DLD-1
DMS-114 = test system: DMS-114
DMS-273 = test system: DMS-273
EKVX = test system: EKVX
HCC 2998 = test system: HCC 2998
HCT-116 = test system: HCT-116
HCT-15 = test system: HCT-15
HL-60 = test system: HL-60
HOP-18 = test system: HOP-18
HOP-62 = test system: HOP-62
HOP-92 = test system: HOP-92
HT-29 = test system: HT-29
IGROV-1 = test system: IGROV-1
K562 = test system: K562
KM-20L2 = test system: KM-20L2
KM12 = test system: KM12
LOX IMVI = test system: LOX IMVI
LXFL 529 = test system: LXFL 529
M14 = test system: M14
M19-MEL = test system: M19-MEL
MOLT-4 = test system: MOLT-4
Malme-3M = test system: Malme-3M
NCI-H226 = test system: NCI-H226
NCI-H460 = test system: NCI-H460
OVCAR-3 = test system: OVCAR-3
OVCAR-4 = test system: OVCAR-4
OVCAR-5 = test system: OVCAR-5
OVCAR-8 = test system: OVCAR-8
RPMI-8226 = test system: RPMI-8226
RXF 393 = test system: RXF 393
SF-295 = test system: SF-295
SK-MEL-28 = test system: SK-MEL-28
SK-MEL-2 = test system: SK-MEL-2
SK-MEL-5 = test system: SK-MEL-5
SK-OV-3 = test system: SK-OV-3
SN12C = test system: SN12C
SNB-19 = test system: SNB-19
SNB-75 = test system: SNB-75
SNB-78 = test system: SNB-78
SW-620 = test system: SW-620
TK-10 = test system: TK-10
U-251 = test system: U-251
UACC-257 = test system: UACC-257
UACC-62 = test system: UACC-62
UO-31 = test system: UO-31
XF498 = test system: XF498
A498 = test system: A498
NCI-H23 = test system: NCI-H23
NCI-H522 = test system: NCI-H522
SF-268 = test system: SF-268
SF-539 = test system: SF-539
SR = test system: SR

Measured: GI50

C[C@@H](NC1CCC[C@H]1O)c1ccccc1 (stereo partly drawn)
inactive: 786-0 > 100 µM | A549 > 100 µM | ACHN > 100 µM | CAKI-1 > 100 µM | CCRF-CEM > 100 µM | COLO 205 > 100 µM | DLD-1 > 100 µM | DMS-114 > 100 µM | DMS-273 > 100 µM | EKVX > 100 µM | HCC 2998 > 100 µM | HCT-116 > 100 µM | HL-60 > 100 µM | HOP-18 > 100 µM | HOP-62 > 100 µM | HOP-92 > 100 µM | HT-29 > 100 µM | IGROV-1 > 100 µM | K562 > 100 µM | KM-20L2 > 100 µM | KM12 > 100 µM | LOX IMVI > 100 µM | LXFL 529 > 100 µM | M14 > 100 µM | M19-MEL > 100 µM | MOLT-4 > 100 µM | Malme-3M > 100 µM | NCI-H226 > 100 µM | NCI-H460 > 100 µM | OVCAR-3 > 100 µM | OVCAR-4 > 100 µM | OVCAR-5 > 100 µM | OVCAR-8 > 100 µM | RPMI-8226 > 100 µM | RXF 393 > 100 µM | SF-295 > 100 µM | SK-MEL-28 > 100 µM | SK-MEL-2 > 100 µM | SK-MEL-5 > 100 µM | SK-OV-3 > 100 µM | SN12C > 100 µM | SNB-19 > 100 µM | SNB-75 > 100 µM | SNB-78 > 100 µM | SW-620 > 100 µM | TK-10 > 100 µM | U-251 > 100 µM | UACC-257 > 100 µM | UACC-62 > 100 µM | UO-31 > 100 µM | XF498 5.66 µM
> 100 µM: HCT-15

CC(C)=CC1C[C@H](C2CC=C3C2(C)CCC2[C@@]3(C)C(=O)CC3[C@]2(C)C=CC(=O)[C@]3(C)CO)CO1 (stereo partly drawn)
inactive: 786-0 5.96 µM | A498 8.81 µM | A549 20.8 µM | ACHN 13.2 µM | CAKI-1 23.9 µM | CCRF-CEM 2.96 µM | COLO 205 14 µM | DMS-114 4.23 µM | DMS-273 5.66 µM | EKVX 26.2 µM | HCC 2998 16.3 µM | HCT-116 3.37 µM | HL-60 2.92 µM | HOP-18 11 µM | HOP-62 12.7 µM | HOP-92 16.6 µM | HT-29 4.15 µM | IGROV-1 13.6 µM | K562 4.34 µM | KM-20L2 5.42 µM | KM12 5.92 µM | LOX IMVI 3.76 µM | LXFL 529 3.45 µM | M14 3.12 µM | M19-MEL 3.85 µM | MOLT-4 2.7 µM | Malme-3M 11.5 µM | NCI-H23 5.42 µM | NCI-H460 11.6 µM | NCI-H522 2.73 µM | OVCAR-3 4.84 µM | OVCAR-4 10.7 µM | OVCAR-5 21 µM | OVCAR-8 4.55 µM | RPMI-8226 3.15 µM | RXF 393 10.4 µM | SF-268 5.82 µM | SF-295 13 µM | SF-539 4.57 µM | SK-MEL-28 5.2 µM | SK-MEL-2 5.45 µM | SK-MEL-5 10 µM | SK-OV-3 16.6 µM | SN12C 20.3 µM | SNB-19 19 µM | SNB-75 8.04 µM | SNB-78 13.6 µM | SR 3.02 µM | SW-620 4.28 µM | TK-10 25.8 µM | U-251 8.83 µM | UACC-257 13.9 µM | UACC-62 11.8 µM | UO-31 18.6 µM | XF498 4.93 µM
14.4 µM: HCT-15
